Data taken from BigSolDB 2.1.

Conditions: in chloroform

Brc1sc(Br)c(Br)c1Br
solubility (mole fraction) (278.15 K): 0.0198
solubility (mole fraction) (282.15 K): 0.0231
solubility (mole fraction) (286.15 K): 0.0265
solubility (mole fraction) (290.15 K): 0.0304
solubility (mole fraction) (294.15 K): 0.0349
solubility (mole fraction) (298.15 K): 0.0401
solubility (mole fraction) (302.15 K): 0.0458
solubility (mole fraction) (306.15 K): 0.0517
solubility (mole fraction) (310.15 K): 0.0588
solubility (mole fraction) (314.15 K): 0.066
solubility (mole fraction) (318.15 K): 0.0745
solubility (mole fraction) (322.15 K): 0.0828
